Reference: PubChem BioAssay AID1963435 (Molecular Pharmacology Branch, DTP, NCI, 2024)

Test system: PANC-1 complex spheroid growth, percent test/control
Test: Anticancer human tumor PANC-1 cell line growth inhibition [Asc];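 also: spheroids exposed to agents for 7 days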;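 as to viability, T/C: percent viability relative to DMSO vehicle wells taken as 100%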
Conditions: for IC50: curve of first compound; for viability, T/C: stronger effect = lower value
In short: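 Tumor cells were grown as complex spheroids with human endothelial cells (HUVEC) and human mesenchymal stem cells as stroma. Agents were tested alone and in combination, in half-log steps down from the clinical Cmax, or from 10 microM where Cmax was unknown.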

Cc1nc(N2CCC3(CC2)COC(C)C3N)c(CO)nc1Sc1ccnc(N)c1Cl (configuration not stated) + Cc1c(S(C)(=O)=O)c(-c2cc(F)cc(N3CCN(c4ccc(NS(=O)(=O)c5ccc(NC(CCN6CCC(C(=O)OCCCP(=O)(O)O)CC6)CSc6ccccc6)c(S(=O)(=O)C(F)(F)F)c5)cc4)CC3)c2)c(-c2ccc(Cl)cc2)n1C(C)C
IC50 (second compound 0.0316 µM): > 3 µM | IC50 (second compound 0.1 µM): > 3 µM | IC50 (second compound 0.316 µM): > 3 µM | IC50 (second compound 1 µM): > 3 µM | IC50 (second compound 3.16 µM): > 3 µM | IC50 (second compound 10 µM): > 3 µM | viability, T/C (second compound 0.0316 µM, first compound 0.00949 µM): 87.6% | viability, T/C (second compound 0.0316 µM, first compound 0.03 µM): 96.6% | viability, T/C (second compound 0.0316 µM, first compound 0.0949 µM): 88.2% | viability, T/C (second compound 0.0316 µM, first compound 0.3 µM): 94.1% | viability, T/C (second compound 0.0316 µM, first compound 0.949 µM): 89.5% | viability, T/C (second compound 0.0316 µM, first compound 3 µM): 95.2% | viability, T/C (second compound 0.1 µM, first compound 0.00949 µM): 92.8% | viability, T/C (second compound 0.1 µM, first compound 0.03 µM): 88.3% | viability, T/C (second compound 0.1 µM, first compound 0.0949 µM): 83.3% | viability, T/C (second compound 0.1 µM, first compound 0.3 µM): 90.1% | viability, T/C (second compound 0.1 µM, first compound 0.949 µM): 87.8% | viability, T/C (second compound 0.1 µM, first compound 3 µM): 84.7% | viability, T/C (second compound 0.316 µM, first compound 0.00949 µM): 103% | viability, T/C (second compound 0.316 µM, first compound 0.03 µM): 93.4% | viability, T/C (second compound 0.316 µM, first compound 0.0949 µM): 89.8% | viability, T/C (second compound 0.316 µM, first compound 0.3 µM): 87.6% | viability, T/C (second compound 0.316 µM, first compound 0.949 µM): 91.8% | viability, T/C (second compound 0.316 µM, first compound 3 µM): 86.7% | viability, T/C (second compound 1 µM, first compound 0.00949 µM): 102% | viability, T/C (second compound 1 µM, first compound 0.03 µM): 91.8% | viability, T/C (second compound 1 µM, first compound 0.0949 µM): 85.9% | viability, T/C (second compound 1 µM, first compound 0.3 µM): 84.5% | viability, T/C (second compound 1 µM, first compound 0.949 µM): 88.2% | viability, T/C (second compound 1 µM, first compound 3 µM): 85.5% | viability, T/C (second compound 3.16 µM, first compound 0.00949 µM): 101% | viability, T/C (second compound 3.16 µM, first compound 0.03 µM): 94.5% | viability, T/C (second compound 3.16 µM, first compound 0.0949 µM): 86.2% | viability, T/C (second compound 3.16 µM, first compound 0.3 µM): 92.9% | viability, T/C (second compound 3.16 µM, first compound 0.949 µM): 84.6% | viability, T/C (second compound 3.16 µM, first compound 3 µM): 77.8% | viability, T/C (second compound 10 µM, first compound 0.00949 µM): 175% | viability, T/C (second compound 10 µM, first compound 0.03 µM): 177% | viability, T/C (second compound 10 µM, first compound 0.0949 µM): 161% | viability, T/C (second compound 10 µM, first compound 0.3 µM): 161% | viability, T/C (second compound 10 µM, first compound 0.949 µM): 164% | viability, T/C (second compound 10 µM, first compound 3 µM): 147%
